The values that follow come from ChEMBL document CHEMBL5543066, “Dual COX-2/15-LOX inhibitors: A new avenue in the prevention of cancer” (Eur J Med Chem, 2023).

The test system of experiment [1] is RAW264.7. The experiment can be described thus: Anti-inflammatory activity against mouse RAW264.7 cells assessed as inhibition of LPS-induced IL-6 production at 10 uM pre-incubated with LPS-stimulation for 2 hrs followed by compound addition and measured after 22 hrs by ELISA analysis relative to control. It counts as functional. On the set-up: scale not given: the % may be the effect or the level left. As to conditions: time 24 hrs.

Experiment [2] deals with Rattus norvegicus. The experiment can be described thus: Anti-inflammatory activity against carrageenan-induced paw edema in Wistar albino rat assessed as inhibition of paw edema at 50 mg/kg, sc administered for 14 days relative to control. It counts as functional. Set-up: scale not given: the % may be the effect or the level left. The following applies: time 14 day. A general note: Carrageenan injected into the paw causes an acute inflammation.

The target in experiment [3] is T1, Prostaglandin G/H synthase 2 (Homo sapiens, UniProt P35354).
T1 sequence (P35354 whole entry): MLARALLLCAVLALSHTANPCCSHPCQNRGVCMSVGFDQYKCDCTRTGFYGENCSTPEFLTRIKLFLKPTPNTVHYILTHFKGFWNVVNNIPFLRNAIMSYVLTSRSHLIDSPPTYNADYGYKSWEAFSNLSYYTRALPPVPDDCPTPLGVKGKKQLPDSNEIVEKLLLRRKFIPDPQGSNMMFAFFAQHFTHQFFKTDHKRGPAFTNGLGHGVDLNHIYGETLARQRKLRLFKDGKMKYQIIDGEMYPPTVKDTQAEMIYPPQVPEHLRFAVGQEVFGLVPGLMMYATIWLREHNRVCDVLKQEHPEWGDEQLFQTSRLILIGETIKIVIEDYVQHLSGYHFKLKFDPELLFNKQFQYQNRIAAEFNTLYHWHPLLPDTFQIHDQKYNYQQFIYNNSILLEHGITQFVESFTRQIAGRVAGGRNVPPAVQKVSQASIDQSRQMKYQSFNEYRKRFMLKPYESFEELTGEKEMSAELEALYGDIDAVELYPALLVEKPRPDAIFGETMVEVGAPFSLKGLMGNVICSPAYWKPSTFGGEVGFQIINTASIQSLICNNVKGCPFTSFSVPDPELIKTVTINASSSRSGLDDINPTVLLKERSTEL
The experiment can be described thus: Inhibition of COX-2 (unknown origin) by Enzyme immune assay.

Experiment [4] can be described thus: Inhibition of human recombinant sPLA2-V.
The subject of experiment [5] is RAW264.7. The experiment can be described thus: Anti-inflammatory activity against mouse RAW264.7 cells assessed as inhibition of LPS-induced TNF-alpha production at 10 uM pre-incubated with LPS-stimulation for 2 hrs followed by compound addition and measured after 22 hrs by ELISA analysis relative to control. The following applies: time 24 hrs. Set-up: scale not given: the % may be the effect or the level left. It counts as functional.

The subject of experiment [6] is Rattus norvegicus. The experiment can be described thus: Anti-inflammatory activity against carrageenan-induced paw edema in Wistar albino rat assessed as inhibition of paw edema. The experiment is classed as functional.
The next experiment addresses Carbonic anhydrase 2 (Homo sapiens, UniProt P00918). The experiment can be described thus: Inhibition of recombinant human carbonic anhydrase II incubated for 30 mins by spectrophotometric analysis.
Experiment [7] has as its target T2, Polyunsaturated fatty acid 5-lipoxygenase (Homo sapiens, UniProt P09917).
T2 sequence (P09917 whole entry): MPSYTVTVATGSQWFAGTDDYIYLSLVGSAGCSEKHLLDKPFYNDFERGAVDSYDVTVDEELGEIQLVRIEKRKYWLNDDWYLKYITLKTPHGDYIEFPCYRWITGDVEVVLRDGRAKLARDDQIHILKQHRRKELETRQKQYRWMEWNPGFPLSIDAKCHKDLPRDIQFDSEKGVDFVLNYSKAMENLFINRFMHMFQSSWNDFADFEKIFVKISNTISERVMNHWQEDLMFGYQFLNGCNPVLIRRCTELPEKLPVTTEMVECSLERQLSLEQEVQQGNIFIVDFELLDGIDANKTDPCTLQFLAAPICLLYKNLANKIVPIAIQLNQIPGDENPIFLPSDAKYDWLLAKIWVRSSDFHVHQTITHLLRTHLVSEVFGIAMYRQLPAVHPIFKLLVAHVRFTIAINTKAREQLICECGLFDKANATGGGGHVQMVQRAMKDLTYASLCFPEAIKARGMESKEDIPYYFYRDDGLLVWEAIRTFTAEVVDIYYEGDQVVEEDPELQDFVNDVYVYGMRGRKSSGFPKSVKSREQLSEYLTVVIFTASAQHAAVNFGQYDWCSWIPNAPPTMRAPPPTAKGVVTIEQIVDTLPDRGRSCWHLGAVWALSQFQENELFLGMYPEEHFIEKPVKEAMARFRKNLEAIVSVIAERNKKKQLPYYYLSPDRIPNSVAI
The experiment can be described thus: Inhibition of 5-LOX in human PMNL cells. It counts as cell-based.

The nature of experiment [8]: Selectivity ratio of IC50 for ovine COX-1 to IC50 for human COX-2.
Experiment [9] has as its target T1, Prostaglandin G/H synthase 2. The experiment can be described thus: Inhibition of human COX-2.
In experiment [10] the target is T3, Prostaglandin G/H synthase 1 (Ovis aries, UniProt P05979).
T3 sequence (P05979 whole entry): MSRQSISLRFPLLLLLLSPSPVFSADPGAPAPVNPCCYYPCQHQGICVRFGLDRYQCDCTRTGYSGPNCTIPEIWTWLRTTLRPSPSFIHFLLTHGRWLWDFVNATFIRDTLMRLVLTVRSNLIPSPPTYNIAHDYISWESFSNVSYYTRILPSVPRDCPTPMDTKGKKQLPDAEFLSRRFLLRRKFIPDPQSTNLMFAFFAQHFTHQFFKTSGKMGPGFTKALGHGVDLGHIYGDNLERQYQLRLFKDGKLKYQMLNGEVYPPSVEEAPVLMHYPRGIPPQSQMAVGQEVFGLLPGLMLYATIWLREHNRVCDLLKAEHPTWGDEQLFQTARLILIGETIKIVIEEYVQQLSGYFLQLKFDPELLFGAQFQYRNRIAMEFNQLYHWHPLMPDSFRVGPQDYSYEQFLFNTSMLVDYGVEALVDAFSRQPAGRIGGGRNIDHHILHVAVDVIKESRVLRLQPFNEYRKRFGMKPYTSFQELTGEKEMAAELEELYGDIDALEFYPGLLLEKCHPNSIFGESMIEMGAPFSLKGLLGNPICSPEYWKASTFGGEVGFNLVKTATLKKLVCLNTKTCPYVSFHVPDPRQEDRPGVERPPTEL
The experiment can be described thus: Inhibition of ovine COX-1.

Experiment [11] can be described thus: Inhibition of soybean lipoxygenase. On the set-up: species or system Glycine max.

Take `COc1ccnc(Nc2nn3c(SC)c(C#N)c(O)nc3c2C#N)c1`: the Activity with RAW264.7 [1] is listed as 80%; with Rattus norvegicus [2] it was 46%; with RAW264.7 [5], 89%. Moreover, the IC50 in experiment [3] came to 1110 nM; in experiment [4], 1000 nM. In addition, the median effective dose (ED50) with Rattus norvegicus [6] came out at 35 mg/kg.

As to `NS(=O)(=O)c1ccc(NCCC(=O)N/N=C/c2ccc(-c3ccc(Br)s3)cc2)cc1`, the IC50 on Carbonic anhydrase 2 is 110 nM.

As for `O=C1c2ccccc2C(=O)N1c1nc2cc([N+](=O)[O-])ccc2n1Cc1cccc(-c2ccccc2)c1`, the 50% inhibitory concentration (IC50) was 320 nM in [7], 1000 nM in experiment [9], 9850 nM in [10] and 1020 nM in [11]. Also, the Ratio IC50 in experiment [8] amounted to 9.85.

The IC50 is the concentration at which inhibition is half-maximal. As usually defined, the ED50 is the dose that gives a 50% effect, or the effect in half of the subjects.
